Data taken from US20130122541A1, “MICROORGANISM PRODUCTION OF HIGH-VALUE CHEMICAL PRODUCTS, AND RELATED COMPOSITIONS, METHODS AND SYSTEMS” (The Regents of the University of Colorado, priority 2010, published 2013).
Values after ≈ are worked out from the molar mass of the structure shown. Like-named read-outs stand apart in the source and are kept apart here.

How the values were obtained:
C. necator (R. eutropha) = experiment: MIC evaluation of 3-HP, C. necator (R. eutropha) aerobic, FGN media, 96 well-plate, 24 h (Common Methods); assay type: cell-based; conditions: for % Increase Over Control: supplements none, vs control, aerobic
Description: For MIC evaluations, the final results are expressed in chemical agent concentrations determined by analysis of the stock solution by HPLC (i.e., see Subsection IIIb). The minimum inhibitory concentration (MIC) was determined aerobically in a 96 well-plate format. […] Media supplements were added according to levels reported in Supplements Table, where specified. Overnight cultures of strains were grown in triplicate in 5 mL LB (with antibiotic where appropriate). […] The cells were further diluted 1:50 and a 10 μL aliquot was used to inoculate each well of a 96 well plate (˜10^4 cells per well) to total volume of 100 uL. […] Plates were incubated for 24 hours at 30 C.

[1] = Reactive extraction of 3-HP from clarified fermentation broth into tertiary amine non-polar phase with co-solvents; assay type: physicochemical; conditions: for 3-HP concentration raffinate: start 96.85 g/L 3-HP, single pass
Description: Calcium chloride at 1 M was added as a flocculent to reach a final concentration of about 8.2 g/L. Thereafter the pH was adjusted to a pH of approximately 2.0 using sulfuric acid. Thereafter a volume of this modified fermentation broth was centrifuged at approximately 3,200 g for 5 minutes to yield a clarified broth and a pellet, which was discarded.
Portions of the clarified broth were then subjected to reactive extraction by mixing with a tertiary amine non-polar phase comprising various co-solvents. […] Amines included Alamine 336, described above, and tripentylamine.

B. subtilis = experiment: MIC evaluation of 3-HP, B. subtilis aerobic, M9 media + glutamate, 96 well-plate, 24 h (Common Methods); assay type: cell-based
Description: (§1) For MIC evaluations, the final results are expressed in chemical agent concentrations determined by analysis of the stock solution by HPLC (i.e., see Subsection IIIb).
(§2) The minimum inhibitory concentration (MIC) was determined aerobically in a 96 well-plate format. […] Media supplements were added according to levels reported in the Supplements Table where specified. Overnight cultures of strains were grown in triplicate in 5 mL LB (with antibiotic where appropriate). A 1% (v/v) inoculum was introduced into a 5 ml culture of M9 minimal media+glutamate.

E. coli = experiment: microbe, parasite or virus in culture; assay type: cell-based; conditions: Escherichia coli, BW25113, read-out: MIC Assay Result (g/L 3-HP), aerobic
Description: as §1
as §2, with “Table,” for “Table”, “media.” for “media+glutamate.”

[2] = sample 1: Alamine 336 with Butanol
[3] = sample 2: Tripentylamine with Butanol
[4] = sample 3: Tripentylamine with p-Xylene
[5] = sample 4: Tripentylamine with Methyl ethyl ketone
[6] = sample 5: Tripentylamine with Methyl tert-butyl ether
[7] = sample 1: Alamine 336 with Butanol, 3-HP mass start 0.97 G
[8] = sample 2: Tripentylamine with Butanol, 3-HP mass start 1.94 G
[9] = sample 3: Tripentylamine with p-Xylene, 3-HP mass start 1.94 G
[10] = sample 4: Tripentylamine with Methyl ethyl ketone, 3-HP mass start 1.94 G
[11] = sample 5: Tripentylamine with Methyl tert-butyl ether, 3-HP mass start 1.94 G
[12] = strain BSX_0003.0 (pWH1520), M9 + glu + trp + 1 mM Xylose

With `O=C(O)CCO` [3-HP, 3-hydroxypropionic acid] the “% Increase Over Control” value (C. necator (R. eutropha); C. necator DSM 542, EZ Rich media) was 200%, the “% Increase Over Control” value (C. necator (R. eutropha); C. necator DSM 542, FGN media) was 0% and the MIC (C. necator (R. eutropha); read-out: average MIC Assay Result (g/L 3-HP), C. necator DSM428, FGN media, supplements none (control), aerobic) was 15 g/L (≈ 167 mM). For the same molecule, the MIC (C. necator (R. eutropha); read-out: average MIC Assay Result (g/L 3-HP), C. necator DSM 542, EZ Rich media, supplements none, aerobic) was 60 g/L (≈ 666 mM), the MIC (C. necator (R. eutropha); read-out: average MIC Assay Result (g/L 3-HP), C. necator DSM 542, FGN media, supplements none, aerobic) was 15 g/L (≈ 167 mM) and the “Total 3HP extracted” value [1, 2] was 0.59 G. The “Total 3HP extracted” value [1, 3] was 1.13 G, the “Total 3HP extracted” value [1, 4] was 0.46 G and the “Total 3HP extracted” value [1, 5] was 1.31 G. For the same molecule, the “Total 3HP extracted” value [1, 6] was 0.73 G, the % 3-HP extracted [1, 2] was 61% and the % 3-HP raffinate [1, 2] was 39%. For the same molecule, the 3-HP concentration raffinate ([1]; sample 1: Alamine 336 with Butanol co-solvent) was 53.94 g/L, the 3-HP mass extractant [1, 7] was 0.59 G and the 3-HP mass raffinate [1, 7] was 0.38 G. The % 3-HP extracted [1, 3] was 58%, the % 3-HP raffinate [1, 3] was 42% and the 3-HP concentration raffinate ([1]; sample 2: Tripentylamine with Butanol co-solvent) was 54.17 g/L. For the same molecule, the 3-HP mass extractant [1, 8] was 1.13 G, the 3-HP mass raffinate [1, 8] was 0.81 G and the % 3-HP extracted [1, 4] was 24%. It also gave a % 3-HP raffinate [1, 4] of 76%, a 3-HP concentration raffinate ([1]; sample 3: Tripentylamine with p-Xylene co-solvent) of 78.69 g/L and a 3-HP mass extractant [1, 9] of 0.46 G. The 3-HP mass raffinate [1, 9] was 1.47 G, the % 3-HP extracted [1, 5] was 67% and the % 3-HP raffinate [1, 5] was 33%. The 3-HP concentration raffinate ([1]; sample 4: Tripentylamine with Methyl ethyl ketone co-solvent) was 52.75 g/L, the 3-HP mass extractant [1, 10] was 1.31 G and the 3-HP mass raffinate [1, 10] was 0.63 G. It also gave a % 3-HP extracted [1, 6] of 38%, a % 3-HP raffinate [1, 6] of 62% and a 3-HP concentration raffinate ([1]; sample 5: Tripentylamine with Methyl tert-butyl ether co-solvent) of 67.64 g/L. For the same molecule, the 3-HP mass extractant [1, 11] was 0.73 G, the 3-HP mass raffinate [1, 11] was 1.21 G and the “% Increase Over Control” value (B. subtilis; B. subtilis 168, M9 + glu + trp, supplements none (control)) was 0%. For the same molecule, the “% Increase Over Control” value (B. subtilis; [12]) was 0%, the “Avg 24 hr ΔOD600” value (B. subtilis; [12]) was 0.00 and the “Avg 24 hr ΔOD600” value (B. subtilis; strain BSX_0011.0 (pWH1520-Pxyl:speB region), M9 + glu + trp + 1 mM Xylose) was 0.07. The “Avg 24 hr ΔOD600” value (B. subtilis; strain BSX_0015.0 (pWH1520-Pxyl:metE region), M9 + glu + trp + 1 mM Xylose) was 0.06, the MIC (E. coli; strain BW25113, no modifications (control), M9) was 27.5 g/L (≈ 305 mM) and the MIC (E. coli; strain BX_00002.0: BW25113 wild type, pKK223-mcs1 (control), M9 + Amp (100 μg/mL)) was 20 g/L. The MIC (E. coli; strain BX_00003.0: BW25113 wild type, pBT-3 (control), M9 + Cm (20 μg/mL)) was 25 g/L, the MIC (E. coli; strain BX_00118.0: BW25113 wild type, pJ251 (control), M9 + Kan (20 μg/mL)) was 25 g/L and the MIC (E. coli; strain BX_00138.0: BW25113 wild type, pSmart-LC-Kan (control), M9 + Kan (20 μg/mL)) was 25 g/L. It also gave an MIC (E. coli; strain BX_00142.0: BW25113 wild type, pSmart-LC-kan, pBT-3 (control), M9 + Kan (20 μg/mL), Cm (20 μg/mL)) of 20 g/L, an MIC (E. coli; strain BX_00144.0: BW25113 wild type, pSmart-HC-Amp (control), M9 + Amp (100 μg/mL)) of 25 g/L and an MIC (E. coli; strain BX_00300.0: BW25113 wild type, pSmart-LC-Kan-tyrA-aroF, M9 + Kan 20 μg/mL) of 35 g/L. For the same molecule, the MIC (E. coli; strain BX_00302.0: BW25113 wild type, pSmart-LC-Kan-folA-ORF, M9 + Kan 20 μg/mL) was 30 g/L, the MIC (E. coli; strain BX_00305.0: BW25113 wild type, pSmart-LC-Kan-pheA-C1, M9 + Kan 20 μg/mL) was 35 g/L and the MIC (E. coli; strain BX_00307.0: BW25113 wild type, pSmart-LC-Kan-tyrA-C1, M9 + Kan 20 μg/mL) was 35 g/L. For the same molecule, the MIC (E. coli; strain BX_00309.0: BW25113 wild type, pSmart-LC-Kan-cynTS, M9 + Kan 20 μg/mL) was 35 g/L, the MIC (E. coli; strain BX_00310.0: BW25113 wild type, pSmart-LC-Kan-glyA, M9 + Kan 20 μg/mL) was 35 g/L and the MIC (E. coli; strain BX_00312.0: BW25113 wild type, pSmart-LC-Kan-serA, M9 + Kan 20 μg/mL) was 35 g/L. For the same molecule, the MIC (E. coli; strain BX_00313.0: BW25113 wild type, pSmart-LC-Kan-folD, M9 + Kan 20 μg/mL) was 30 g/L, the MIC (E. coli; strain BX_00314.0: BW25113 wild type, pSmart-LC-Kan-aroE, M9 + Kan 20 μg/mL) was 35 g/L and the MIC (E. coli; strain BX_00315.0: BW25113 wild type, pSmart-LC-Kan-aroKB C1, M9 + Kan 20 μg/mL) was 35 g/L. For the same molecule, the MIC (E. coli; strain BX_00317.0: BW25113 wild type, pSmart-LC-Kan-ilvA operon, M9 + Kan 20 μg/mL) was 35 g/L, the MIC (E. coli; strain BX_00318.0: BW25113 wild type, pSmart-LC-Kan-cysM, M9 + Kan 20 μg/mL) was 35 g/L and the MIC (E. coli; strain BX_00319.0: BW25113 wild type, pK223-aroH, M9 + Amp 100 μg/mL + 1 mM IPTG) was 30 g/L.
